Test results reported in patent US20240024273A1, “TOPICAL ADMINISTRATION OF 2-(DIETHYLAMINO)ETHYL 2-(4-ISOBUTYLPHENYL)PROPRIONATE FOR TREATMENT OF DISEASES” (TECHFIELDS PHARMA CO., LTD., priority 2020, published 2024).

Test system: Subjects with Osteoarthritis of the Knee
Test: Second Phase 2 study: safety (treatment-emergent adverse events)
Assay type: in vivo, human
Conditions: BID
Source text: Safety assessments will be performed at each visit and will include assessment of AEs, vital signs (blood pressure, pulse rate, and oral temperature), clinical laboratories, physical examination, skin irritation, and electrocardiograms (ECGs) as indicated in the study flow chart, Table 47.
Safety assessments will include AEs, vital signs (blood pressures, pulse rate, and oral temperature), clinical laboratories, physical examination, skin irritation, and ECGs at various time points during the study as indicated in the study flow chart.
Adverse events of interest include: local skin reactions around the treated knee(s), upper stomach pain, GI bleeding, serious cardiovascular side effects (e.g., thrombotic events, myocardial infarction, or stroke), jaundice, elevated liver function tests, and nausea.
Safety analyses will be conducted on the SAS. Safety parameters will be listed and summarized using standard descriptive statistics, as appropriate. No formal statistical analyses are planned.

[1] = moderate adverse events, 4.375 mg/knee, N = 71
[2] = moderate adverse events, 8.75 mg/knee, N = 70
[3] = possibly, probably, or definitely related to study drug, 4.375 mg/knee, N = 71
[4] = possibly, probably, or definitely related to study drug, 8.75 mg/knee, N = 70
[5] = possibly, probably, or definitely related to study drug, 17.5 mg/knee, N = 70

`CCN(CC)CCOC(=O)C(C)c1ccc(CC(C)C)cc1` (stereo not shown) [2-(diethylamino)ethyl 2-(4-isobutylphenyl)propionate] was tested, and the “Gastroenteritis: subjects with adverse events” value [1] was 1, the “Gastroesophageal reflux disease: number of adverse events” value [1] was 1 and the “Gastroesophageal reflux disease: percentage of subjects with adverse events” value [1] was 1.4%. For the same molecule, the “Gastroesophageal reflux disease: subjects with adverse events” value [1] was 1, the “Total Adverse Events: number of adverse events” value (“Total Adverse Events: number” for short) [1] was 3 and the “Total Adverse Events: percentage of subjects with adverse events” value (shortened to “Total Adverse Events: percentage”) [1] was 4.2%. For the same molecule, the “Total Adverse Events: subjects with adverse events” value (“Total Adverse Events: subjects” below) [1] was 3, the “Upper Respiratory Tract Infection: number of adverse events” value [1] was 1 and the “Upper Respiratory Tract Infection: percentage of subjects with adverse events” value [1] was 1.4%. For the same molecule, the “Upper Respiratory Tract Infection: subjects with adverse events” value [1] was 1, the “Total Adverse Events: number” value [2] was 4 and the “Total Adverse Events: percentage” value [2] was 5.7%. The “Total Adverse Events: subjects” value [2] was 4, the “Upper Respiratory Tract Infection: number of adverse events” value [2] was 4 and the “Upper Respiratory Tract Infection: percentage of subjects with adverse events” value [2] was 1.4%. The “Upper Respiratory Tract Infection: subjects with adverse events” value [2] was 4, the “Abdominal Pain Upper: number of adverse events” value (“Abdominal Pain Upper: number” below) [3] was 1 and the “Abdominal Pain Upper: percentage of subjects with adverse events” value (“Abdominal Pain Upper: percentage” below) [3] was 1.4%. For the same molecule, the “Abdominal Pain Upper: subjects with adverse events” value (“Abdominal Pain Upper: subjects” below) [3] was 1, the “Administration Site Conditions: number of adverse events” value (from here on “Administration Site Conditions: number”) [3] was 1 and the “Administration Site Conditions: percentage of subjects with adverse events” value [3] was 1.4%. The “Administration Site Conditions: subjects with adverse events” value (shortened to “Administration Site Conditions: subjects”) [3] was 1, the “Alanine Aminotransferase Increased: number of adverse events” value [3] was 1 and the “Alanine Aminotransferase Increased: percentage of subjects with adverse events” value [3] was 1.4%. The “Alanine Aminotransferase Increased: subjects with adverse events” value [3] was 1, the “Application Site Irritation: number of adverse events” value (from here on “Application Site Irritation: number”) [3] was 1 and the “Application Site Irritation: percentage of subjects with adverse events” value (“Application Site Irritation: percentage” below) [3] was 1.4%. The “Application Site Irritation: subjects with adverse events” value (shortened to “Application Site Irritation: subjects”) [3] was 1, the “Aspartate Aminotransferase Increased: number of adverse events” value [3] was 3 and the “Aspartate Aminotransferase Increased: percentage of subjects with adverse events” value [3] was 4.2%. For the same molecule, the “Aspartate Aminotransferase Increased: subjects with adverse events” value [3] was 3, the “Gamma-Glutamyltransferase Increased: number of adverse events” value [3] was 2 and the “Gamma-Glutamyltransferase Increased: percentage of subjects with adverse events” value [3] was 2.8%. The “Gamma-Glutamyltransferase Increased: subjects with adverse events” value [3] was 2, the “Headache: number of adverse events” value [3] was 1 and the “Headache: percentage of subjects with adverse events” value (shortened to “Headache: percentage of subjects”) [3] was 1.4%. For the same molecule, the “Headache: subjects with adverse events” value [3] was 1, the “Hypertriglyceridemia: number of adverse events” value (from here on “Hypertriglyceridemia: number”) [3] was 6 and the “Hypertriglyceridemia: percentage of subjects with adverse events” value (“Hypertriglyceridemia: percentage” for short) [3] was 7.0%. For the same molecule, the “Hypertriglyceridemia: subjects with adverse events” value (“Hypertriglyceridemia: subjects” for short) [3] was 5, the “Positive Fecal Occult Blood Test: number of adverse events” value (shortened to “Positive Fecal Occult Blood Test: number”) [3] was 6 and the “Positive Fecal Occult Blood Test: percentage of subjects with adverse events” value [3] was 7.0%. For the same molecule, the “Positive Fecal Occult Blood Test: subjects with adverse events” value [3] was 5, the “Throat Irritation: number of adverse events” value [3] was 2 and the “Throat Irritation: percentage of subjects with adverse events” value [3] was 2.8%. The “Throat Irritation: subjects with adverse events” value [3] was 2, the “Total Adverse Events: number” value [3] was 26 and the “Total Adverse Events: percentage” value [3] was 33.8%. The “Total Adverse Events: subjects” value [3] was 24, the “White Blood Cell Count Decreased: number of adverse events” value [3] was 2 and the “White Blood Cell Count Decreased: percentage of subjects with adverse events” value [3] was 2.8%. For the same molecule, the “White Blood Cell Count Decreased: subjects with adverse events” value [3] was 2, the “Abdominal Discomfort: number of adverse events” value [4] was 4 and the “Abdominal Discomfort: percentage of subjects with adverse events” value [4] was 4.3%. The “Abdominal Discomfort: subjects with adverse events” value [4] was 3, the “Abdominal Pain Upper: number” value [4] was 1 and the “Abdominal Pain Upper: percentage” value [4] was 1.4%. For the same molecule, the “Abdominal Pain Upper: subjects” value [4] was 1, the “Administration Site Conditions: number” value [4] was 1 and the “Administration Site Conditions: percentage of subjects with adverse events” value [4] was 1.4%. For the same molecule, the “Administration Site Conditions: subjects” value [4] was 1, the “Alanine Aminotransferase Increased: number of adverse events” value [4] was 1 and the “Alanine Aminotransferase Increased: percentage of subjects with adverse events” value [4] was 1.4%. The “Alanine Aminotransferase Increased: subjects with adverse events” value [4] was 1, the “Application Site Irritation: number” value [4] was 1 and the “Application Site Irritation: percentage” value [4] was 1.4%. For the same molecule, the “Application Site Irritation: subjects” value [4] was 1, the “Diarrhoea: number of adverse events” value [4] was 2 and the “Diarrhoea: percentage of subjects with adverse events” value [4] was 2.9%. For the same molecule, the “Diarrhoea: subjects with adverse events” value [4] was 2, the “Dizziness: number of adverse events” value [4] was 2 and the “Dizziness: percentage of subjects with adverse events” value [4] was 2.9%. For the same molecule, the “Dizziness: subjects with adverse events” value [4] was 2, the “Headache: number of adverse events” value [4] was 6 and the “Headache: percentage of subjects” value [4] was 5.7%. The “Headache: subjects with adverse events” value [4] was 4, the “Hypertriglyceridemia: number” value [4] was 3 and the “Hypertriglyceridemia: percentage” value [4] was 4.3%. The “Hypertriglyceridemia: subjects” value [4] was 3, the “Positive Fecal Occult Blood Test: number” value [4] was 6 and the “Positive Fecal Occult Blood Test: percentage of subjects with adverse events” value [4] was 7.1%. For the same molecule, the “Positive Fecal Occult Blood Test: subjects with adverse events” value [4] was 5, the “Throat Irritation: number of adverse events” value [4] was 1 and the “Throat Irritation: percentage of subjects with adverse events” value [4] was 1.4%. The “Throat Irritation: subjects with adverse events” value [4] was 1, the “Total Adverse Events: number” value [4] was 34 and the “Total Adverse Events: percentage” value [4] was 41.4%. The “Total Adverse Events: subjects” value [4] was 29, the “White Blood Cell Count Decreased: number of adverse events” value [4] was 2 and the “White Blood Cell Count Decreased: percentage of subjects with adverse events” value [4] was 2.9%. The “White Blood Cell Count Decreased: subjects with adverse events” value [4] was 2, the “Abdominal Discomfort: number of adverse events” value [5] was 1 and the “Abdominal Discomfort: percentage of subjects with adverse events” value [5] was 1.4%. The “Abdominal Discomfort: subjects with adverse events” value [5] was 1, the “Abdominal Pain Upper: number” value [5] was 2 and the “Abdominal Pain Upper: percentage” value [5] was 1.4%. The “Abdominal Pain Upper: subjects” value [5] was 1, the “Administration Site Conditions: number” value [5] was 4 and the “Administration Site Conditions: percentage of subjects with adverse events” value [5] was 5.7%. For the same molecule, the “Administration Site Conditions: subjects” value [5] was 4, the “Application Site Irritation: number” value [5] was 1 and the “Application Site Irritation: percentage” value [5] was 1.4%. For the same molecule, the “Application Site Irritation: subjects” value [5] was 1, the “Application Site Rash: number of adverse events” value [5] was 3 and the “Application Site Rash: percentage of subjects with adverse events” value [5] was 4.3%. For the same molecule, the “Application Site Rash: subjects with adverse events” value [5] was 3, the “Aspartate Aminotransferase Increased: number of adverse events” value [5] was 1 and the “Aspartate Aminotransferase Increased: percentage of subjects with adverse events” value [5] was 1.4%. For the same molecule, the “Aspartate Aminotransferase Increased: subjects with adverse events” value [5] was 1, the “Dizziness: number of adverse events” value [5] was 1 and the “Dizziness: percentage of subjects with adverse events” value [5] was 1.4%. The “Dizziness: subjects with adverse events” value [5] was 1, the “Headache: number of adverse events” value [5] was 1 and the “Headache: percentage of subjects” value [5] was 1.4%. For the same molecule, the “Headache: subjects with adverse events” value [5] was 1, the “Hypertriglyceridemia: number” value [5] was 6 and the “Hypertriglyceridemia: percentage” value [5] was 8.6%. For the same molecule, the “Hypertriglyceridemia: subjects” value [5] was 6, the “Positive Fecal Occult Blood Test: number” value [5] was 5 and the “Positive Fecal Occult Blood Test: percentage of subjects with adverse events” value [5] was 7.1%. For the same molecule, the “Positive Fecal Occult Blood Test: subjects with adverse events” value [5] was 5, the “Total Adverse Events: number” value [5] was 25 and the “Total Adverse Events: percentage” value [5] was 35.7%. The “Total Adverse Events: subjects” value [5] was 25.
